Results taken from US20160152560A1, “Compounds for the treatment of hypertension and hypertensive end stage renal disease” (THE REGENTS OF THE UNIVERSITY OF CALIFORNIA, priority 2013, published 2016).
Where “and” joins values, the source holds several entries; their conditions need not be identical. Equal entries are not always repeated. Where two headings read alike, the source gives them in different places. Ends that are not written are not given here.

How the values were obtained:
[1] = tested on: T1, nicotinic cholinergic receptor; test: Nicotine-stimulated [3H]-norepinephrine (catecholamine) secretion from PC12 cells; assay type: cell-based, rat; settings: for IC50 / Hill slope (cooperativity of inhibition of secretion): nicotine 30 μM, PC12 cells; for Hill slope (cooperativity of inhibition of secretion): Hill plot; for Norepinephrine secretion at ascending nicotine doses (noncompetitive inhibition): nicotine 10 to 1000 μM, PC12 cells (FIG. 3C); for Inhibition of catecholamine release triggered by nicotine: nicotine stimulation, PC12 cells (FIG. 3B)
T1 construct: nicotine 30 μM, PC12 cells, 30 min; other: Hill plot, nicotine 30 μM, PC12 cells; other: screening at 0.5 μM and 5 μM doses; nicotine 30 μM, PC12 cells; other:
Experimental: (§1) Rat PC12 pheochromocytoma cells were grown at 37° C. with 6% CO2, in 12-well plates, in Dulbecco's modified Eagle's medium (high glucose) supplemented with fetal bovine serum, horse serum, and penicillin/streptomycin. Secretion assays were performed as described previously (N. Biswas, et al., Endocrinology, 149 (2008), 749-757). Cells were labeled for 3 h with 1 μCi/mL of [^3H]-norepinephrine (NET678, Perkin-Elmer, Waltham, Mass.), then washed three times with basal medium and one time with secretion buffer. Subsequently, the cells were incubated for 30 min with or without the agonist nicotine (30 μM), in the presence or absence of test compounds (0.5 μM or 5 μM). For IC50 determinations, secretion assays were performed in the presence of increasing concentrations of test compounds. The extracellular secretion medium and the cell lysates were collected for [^3H]-norepinephrine measurement by liquid scintillation counting. Results were expressed as percent secretion:
(§2) % secretion=[amount released/(amount released+amount in lysate)]×100.
(§3) Net secretion was calculated as agonist-stimulated release minus basal release. To establish the specificity of secretory inhibition by test compounds, in some experiments catecholamine release was triggered with other classes of secretagogues that bypass the nicotinic cholinergic pathway: membrane depolarization (55 mM KCl); P2x purinergic receptor stimulation (100 μM ATP); K^+ (repolarizing) channel blockade (2 mM BaCl2 in the absence of extracellular Ca^2+); or a Ca^2+ ionophore (1 μM ionomycin).
Actions of test compounds were compared with the classical noncompetitive nicotinic antagonist chlorisondamine, wherein labeled cells were incubated with different doses of nicotine in the presence or absence of peptide antagonists or chlorisondamine (5 μM).

nicotinic receptors = test: Nicotine-induced 45Ca2+ uptake by PC12 cells; assay type: cell-based, rat; settings: nicotine 30 μM, read-out: IC50 for inhibition of nicotine-induced 45Ca2+ uptake
Experimental: Nicotinic cholinergic secretory responses in the chromaffin cells are triggered by an early influx of calcium. To test the ability of the compounds to interfere at this early stage of signal transduction, PC12 cells were stimulated with nicotine (30 μM) in the presence or absence of test compounds and agonist-mediated uptake of ^45Ca^2+ was measured. ^45Ca^2+ uptake was performed as described previously with minor modifications S. K. Mahata et al., J. Clin. Invest., 100 (1997), 1623-1633). Briefly, PC12 cells were grown on poly-L-lysine coated 6-well culture dishes, and were washed with 1 mL release buffer (150 mmol/L NaCl, 5 mmol/L KCl, 2 mmol/L CaCl2, 10 mmol/L Hepes buffer, pH 7.4) every 15 minutes for 1 hour at 37° C. Cells were then pre-incubated for 1 min in release buffer in the presence or absence of test compounds. Cells were incubated for 2 min with 1 mL of Ca^2+-free release buffer containing 2 μCi of ^45Ca^2+ (catalog number NEZ01300, Perkin-Elmer), 30 μM nicotine in the presence or absence of test compounds. Thereafter, Ca^2+ uptake was terminated by the addition of 2 mL of ice-cold Ca^2+-free secretion medium containing 2 mmol/L EGTA and 1 mmol/L LaCl3, and further washed six times with 2 mL of the same buffer. Cell lysis buffer (secretion medium containing 0.1% Triton X-100, 1 mL) was then added, and the lysate was collected for liquid scintillation counting.

PC12 cells [2] = test: Basal [3H]-norepinephrine secretion from PC12 cells; assay type: cell-based, rat; settings: no agonist
Experimental: as §1, §2
The compounds were also tested to determine their effect on basal secretion.

PC12 cells [3] = test: Catecholamine release triggered by secretagogues that bypass the nicotinic cholinergic pathway (KCl, ATP, BaCl2, ionomycin); assay type: cell-based, rat; settings: 55 mM KCl, 100 μM ATP, 2 mM BaCl2, 1 μM ionomycin
Experimental: as §3
In addition to nicotinic-cholinergic stimulation, several secretagogues that act at later stages in the secretory pathway than the nicotinic receptor were tested, including membrane depolarization (by KCl), or blockade of repolarization (by Ba^2+). In addition, secretagogues that act on different targets from the nicotinic-cholinergic receptor, such as P2x (ATP) or artificial Ca^2+ pores (Ca^2+ ionophore ionomycin) were used.

[4] = tested on: BPH/2J polygenic hypertensive mice; test: Telemetric continuous intra-arterial blood pressure and heart rate in hypertensive BPH/2J mice; assay type: in vivo, mouse; settings: 5 μg/g body weight i.p.
Text: Telemetric measurement of blood pressure (BP) in conscious hypertensive mice (polygenic hypertensive BPH/2J mouse model; F. A. Wright et al., Hypertension, 34 (1999), p. 625-630) was achieved using a Data Sciences International (DSI; Transoma Medical) Physiol Tel telemetry system, implanting a catheter coupled to a TA11PA-C20 (DSI) transmitter, as described (N. R. Mahapatra et al., J. Clin. Invest., 115 (2005), 1942-1952). The animals and implants were left to stabilize for ten days after surgery. BPH/2J polygenic hypertensive mice (n=7/group) were then treated with test compound (5 μg/g body weight, intra-peritoneal; or vehicle). BP and heart rate (HR) were measured continuously over 24 hours, before and after compound administration.

[5] = target: nicotinic cholinergic receptor; settings: Mahata et al., Mol. Pharmacol. 66 (2004); read-out: IC50 of human catestatin, previously measured; cited from earlier work
[6] = Table 1, 30 min, read-out: IC50: concentration that achieves 50% inhibition of secretion
[7] = increasing compound doses, read-out: IC50 from secretion assays with increasing compound doses

In the case of Nc1nc(N)c2nc(CNc3ccc(C(=O)N[C@@H](CCC(=O)O)C(=O)O)cc3)cnc2n1 [TKO-10-1], the IC50 [1, 6] is reported as > 5000 nM.

For O=C(Nc1cc(C2=NCCN2)cc(C2=NCCN2)c1)Nc1cc(C2=NCCN2)cc(C2=NCCN2)c1 [TKO-10-2], the IC50 [1, 6] was > 5000 nM.

In the case of C/N=C(\NC)c1ccc(/N=C(\NC)c2ccc(/C(=N/c3ccc(/C(=N/C)NC)cc3)NC)cc2)cc1 [TKO-10-3], the IC50 [1, 6] is reported as 1700 nM.

With C/N=C(/NC)c1ccc(NC(=O)Nc2cccc(NC(=O)Nc3ccc(/C(=N\C)NC)cc3)c2)cc1 [TKO-10-4] the IC50 [1, 6] was 230 nM, the IC50 [1, 7] was 41 nM and the IC50 (nicotinic receptors) was ~70 nM and 70 nM.

For CNC(=O)c1cc(NC(=O)Nc2cccc(C3=NCCN3)c2)cc(NC(=O)Nc2cccc(C3=NCCN3)c2)c1 [TKO-10-5], the “Effect on basal secretion (~5% 3H-NE release)” value (PC12 cells [2]) was “remained unaltered”, the “Hill slope (cooperativity of inhibition of secretion)” value [1] was “near unity” and the IC50 [1, 6] was 1100 nM. The IC50 [1, 7] was 1000 nM, the “Norepinephrine secretion at ascending nicotine doses (noncompetitive inhibition)” value ([1]; 30 min) was “reduced norepinephrine secretion significantly” and the “Inhibition of catecholamine release triggered by nicotine” value [1] was “significantly inhibited catecholamine release”. The IC50 (nicotinic receptors) was ~100 nM and 100 nM and the “Inhibition of catecholamine release caused by agents acting distal to the receptor or on other receptor classes” value (PC12 cells [3]) was “not when secretion was caused by agents acting distal to the receptor, or on other receptor classes”.

For CNC(=N)c1ccc(NC(=N)c2ccc(Cl)c(C(=N)Nc3ccc(C(=N)NC)cc3)c2)cc1 [TKO-10-6], the IC50 [1, 6] was 1800 nM.

In the case of C/N=C(/NC)c1ccc(NC(=O)Nc2ccc(C)c(NC(=O)Nc3ccc(/C(=N\C)NC)cc3)c2)cc1 [TKO-10-7], the IC50 [1, 6] is reported as 290 nM, the IC50 [1, 7] is reported as 24 nM and the IC50 (nicotinic receptors) is reported as ~100 nM and 100 nM.

Work on CCN/C(=N/c1cccc(C2=NCCN2)c1)c1ccc(/C(=N\c2cccc(C3=NCCN3)c2)NCC)cc1 [TKO-10-8] yielded an IC50 [1, 6] of 1600 nM.

In the case of CNC(=O)c1ccc(NC(=O)Nc2cccc(C3=NCCN3)c2)cc1NC(=O)Nc1cccc(C2=NCCN2)c1 [TKO-10-9], the IC50 [1, 6] is reported as 1400 nM.

Nc1nc(N)c(-c2ccc(Cl)cc2)c(CCc2ccc(NC(=O)CBr)cc2)n1 [TKO-10-10] showed an IC50 [1, 6] of 1500 nM.

With Cc1ccnc(NS(=O)(=O)c2ccc(/N=N/c3cc(/N=N/c4ccccc4)c(N)nc3N)cc2)n1 [TKO-10-11] the IC50 [1, 6] was > 5000 nM.

Work on Nc1nc(N)c(/N=N/c2ccc(S(=O)(=O)Nc3ncccn3)cc2)cc1/N=N/c1ccccc1 [TKO-10-12] yielded an IC50 [1, 6] of 2000 nM.

In the case of Cc1cc(NC(=O)NCc2ccc(N3C(N)=NC(N)=NC3(C)C)cc2)ccc1S(=O)(=O)F [TKO-10-13], the IC50 [1, 6] is reported as 870 nM.

With CCN(CC)CC(O)CNc1cc(C)nc(NC(=N)Nc2ccc(Cl)c(Cl)c2)n1 (stereo not drawn) [TKO-10-14] the “Effect on basal secretion (~5% 3H-NE release)” value (PC12 cells [2]) was “remained unaltered”, the IC50 [1, 6] was 680 nM and the “Norepinephrine secretion at ascending nicotine doses (noncompetitive inhibition)” value ([1]; 30 min) was “reduced norepinephrine secretion significantly”. The “Inhibition of catecholamine release triggered by nicotine” value [1] was “significantly inhibited catecholamine release” and the “Inhibition of catecholamine release caused by agents acting distal to the receptor or on other receptor classes” value (PC12 cells [3]) was “not when secretion was caused by agents acting distal to the receptor, or on other receptor classes”.

For CC1(C)N=C(N)N=C(N)N1c1cccc(CNC(=O)Nc2ccccc2)c1 [TKO-10-15], the IC50 [1, 6] was > 5000 nM.

CCN1CCC(CNc2cc(C)nc(NC(=N)Nc3ccc(Cl)c(Cl)c3)n2)C1 (stereo not drawn) [TKO-10-16] showed an IC50 [1, 6] of 450 nM.

With CCN1CCC(CNc2cc(C)nc(NC(=N)Nc3cc(Cl)cc(Cl)c3)n2)C1 (stereo not drawn) [TKO-10-17] the IC50 [1, 6] was 1900 nM.

With C/C(=N\NC(=N)N)c1cccc(NC(=S)Nc2cccc(/C(C)=N/NC(=N)N)c2)c1 [TKO-10-18] the “Fall in heart rate (HR)” value [4] was ~180 beats/min, the “Reflex tachycardia after fall in BP” value [4] was “not accompanied by reflex tachycardia” and the “Time by which BP declines were apparent” value [4] was 10 to 30 min. For the same molecule, the “Time for which BP declines were maintained” value [4] was ≤ 60 min, the “Reduction in DBP” value ([4]; initial DBP 104.9±0.1 mmHg) was ~25 mmHg and the “Reduction in SBP” value ([4]; initial SBP 145.0±0.6 mmHg) was ~33 mmHg. The “Hill slope (cooperativity of inhibition of secretion)” value [1] was “near unity”, the IC50 [1, 6] was 180 nM and the IC50 [1, 7] was 17 nM. For the same molecule, the IC50 (nicotinic receptors) was ~90 nM and 90 nM.

Work on Nc1ccc(CCCCc2nc(N)nc(N)c2-c2ccc(Cl)c(Cl)c2)cc1 [TKO-10-19] yielded an IC50 [1, 6] of 2600 nM.

Molecule CCN1CCCC(CNc2cc(C)nc(NC(=N)Nc3ccc(Cl)c(Cl)c3)n2)C1 (stereo not drawn) [TKO-10-20] has an IC50 [1, 6] of 1100 nM.

For “SSMKLSFRARAYGFRGPGPQL [Human catestatin]”, the IC50 [5] is given as 820 nM.
